{"source": "paper PMC4481117", "about": "(Molecular Pain, 2015)", "type_in_all_cases": "cell-based, Human", "key": {"LFA-1 (αLβ2, CD11a/CD18)": {"tested_on": "LFA-1 (αLβ2, CD11a/CD18)", "assay": "Adhesion of LFA-1-expressing HEK293 cells to immobilized peptide", "conditions": "peptide immobilized at 10 μM, 30 min at 37 °C", "method": "(§1) Fig. 3 Adhesion of Mac-1-expressing cells to Dyn A and Dyn B. a, Mac-1-expressing and wild-type HEK293 cells were labeled with calcein and 5x10^4 cells were added to the wells coated with different concentrations of the Dyn A. After 30 min at 37 °C, nonadherent cells were removed and fluorescence was measured. The data shown are means of triplicate determinations, and error bars represent S.E. The figure is representative of 8 experiments. b , adhesion of HEK293 cells expressing Mac-1, LFA and the I-less form of Mac-1 to Dyn A and Dyn B immobilized at 10 μM was determined as described in A. c, calcein-labeled Mac-1-HEK293 cells were preincubated without or with 10 μg/ml of anti-αM mAb 44a or 1 μg/ml NIF for 15 minutes. For testing the role of glucosaminoglycans in cell adhesion, dynorphin A-coated wells were preincubated with 100 μl of 10 μg/ml of chondroitin sulfate A, chondroitin sulfate B and heparin. […]\n(§2) Adhesion assays were performed essentially as described previously. […] Fluorescence was measured in a CytoFluorII fluorescence plate reader (Perceptive Biosystems, Framingham, MA). […] After aspirating the solution, labeled cells were added and cell adhesion was analyzed as above."}, "I-less form of Mac-1": {"tested_on": "I-less form of Mac-1", "assay": "Adhesion of HEK293 cells expressing the I-less form of Mac-1", "conditions": "peptide immobilized at 10 μM, 30 min at 37 °C", "method": "as §1, §2"}, "[1]": {"tested_on": "Mac-1 (Mac-1-HEK293 cells)", "assay": "Inhibition of adhesion of Mac-1-HEK293 cells to fibrinogen by soluble peptides", "conditions": "soluble peptide 50 μM, 10 min at 22 °C; 2.5 μg/mL fibrinogen coating, 30 min at 37 °C; mean ± S.E., three experiments", "method": "Fig. 4 Effect of soluble Dyn A on Mac-1-mediated cell adhesion to fibrinogen. a (left ordinate), calcein-labeled Mac-1-HEK293 cells were preincubated with different concentrations of dynorphin A (black bar), dynorphin B (open bar) or control peptide (gray bar) for […] at 22 °C and added to the wells of microtiter plates coated with 2.5 μg/mL fibrinogen. Cells were allowed to adhere for 30 minutes at 37 °C before removing nonadherent cells. […] Data are expressed as a percentage of total cell fluorescence\nAdhesion assays were performed essentially as described previously. […] Cells were labeled with 10 μM calcein for 30 min at 37 °C and washed twice with Hanks’ Balanced salt solution (HBSS) containing 0.1 % BSA. Aliquots (100 μl) of labeled cells (5x10^5/ml) were added to each well and allowed to adhere for 30 min at 37 °C. The non-adherent cells were removed by two washes with PBS. Fluorescence was measured in a CytoFluorII fluorescence plate reader (Perceptive Biosystems, Framingham, MA). In inhibition experiments, cells were mixed with different concentrations of peptides, NIF or mAbs for 20 min at 22 °C before they were added to the wells coated with adhesive substrates. […] After aspirating the solution, labeled cells were added and cell adhesion was analyzed as above."}, "wild-type HEK293 cells": {"tested_on": "wild-type HEK293 cells", "assay": "Transwell migration of wild-type HEK293 cells to Dyn A", "conditions": "16 h at 37 °C", "method": "Fig. 6 Migration of Mac-1-expressing cells to Dyn A in a Transwell system. a, Mac-1-expressing HEK 293 cells (100 μl at 3 × 10^6 cell/ml) were added to the upper wells of the transwell chamber and their ability to migrate to different concentrations of Dyn A placed in the lower chamber was analyzed. After 16 hours at 37 °C, migrated cells were fixed, stained, and counted. Data are presented as numbers of migrated cells per field ± S.E. for five random fields per well. The figure is representative of 5 experiments. b, Mac-1-expressing or wild-type HEK 293 cells were added to the upper wells of the transwell chamber and their ability to migrate to 10 μM Dyn A placed in the lower chamber was analyzed as in A. Some Mac-1-HEK293 cells were pretreated with 20 μg/ml of mAbs 44a (anti-αM), IB4 (anti-β2) or OKM1 (non function-blocking anti-αM) or medium alone before addition to the upper wells. ***, medium alone. […] The number of migrated cells was determined as in A. Data are presented as number of migrated cells per field ± S.E. for five random fields per well. […]\nMigration assays with wild-type and Mac-1-expressing HEK293 cells and purified macrophages using Transwell inserts (5 μm pore size) were performed as previously described. […] The photographs were taken using a 20x objective and cells in […] and cells were counted. […]"}}}
{"smiles": "CC[C@H](C)[C@H](NC(=O)[C@H](CCCNC(=N)N)NC(=O)[C@H](CCCNC(=N)N)NC(=O)[C@H](CC(C)C)NC(=O)[C@H](Cc1ccccc1)NC(=O)CNC(=O)CNC(=O)[C@@H](N)Cc1ccc(O)cc1)C(=O)N[C@@H](CCCNC(=N)N)C(=O)N1CCC[C@H]1C(=O)N[C@@H](CCCCN)C(=O)N[C@@H](CC(C)C)C(=O)N[C@@H](CCCCN)C(=O)N[C@@H](Cc1c[nH]c2ccccc12)C(=O)N[C@@H](CC(=O)O)C(=O)N[C@@H](CC(N)=O)C(=O)N[C@@H](CCC(N)=O)C(=O)O", "note": "[Dyn A]", "values": [{"measurement": "Adhesion of LFA-1-HEK293 cells", "setting": "LFA-1 (αLβ2, CD11a/CD18)", "result": "13 ± 2", "unit": "%"}, {"measurement": "Adhesion of HEK293 cells expressing the I-less form of Mac-1", "setting": "I-less form of Mac-1", "result": "7 ± 1", "unit": "%"}, {"measurement": "Inhibition of adhesion to fibrinogen", "setting": "[1]", "result": "67 ± 2", "unit": "%"}, {"measurement": "Migration of wild-type HEK293 cells (in words)", "setting": "wild-type HEK293 cells", "result": "did not migrate"}]}
